Measurements: ChEMBL document CHEMBL1134425, “alpha-Amino-beta-sulphone hydroxamates as potent MMP-13 inhibitors that spare MMP-1” (Bioorg Med Chem Lett, 2001)

Assays:
[1] = biological target: Matrix metalloproteinase (1 and 13) (Homo sapiens) (UniProt P45452+P03956); assay: Selectivity for Matrix metalloprotease-1 over Matrix metalloprotease-13; format: protein assay
[2] = Maximum plasma concentration dosed orally in rats after 6 hours; format: ADME, organism-based; parameters: route oral; details: rat, po
[3] = Maximum plasma concentration dosed orally in rats; format: ADME, organism-based; parameters: route oral; details: rat, po
Collagenase 3 = Collagenase 3 (Homo sapiens, UniProt P45452); assay: Inhibition of Matrix metalloprotease-13
Interstitial collagenase = biological target: T1, Interstitial collagenase (Homo sapiens, UniProt P03956); assay: Inhibition of Matrix metalloprotease-1
T1 sequence (P03956 whole entry): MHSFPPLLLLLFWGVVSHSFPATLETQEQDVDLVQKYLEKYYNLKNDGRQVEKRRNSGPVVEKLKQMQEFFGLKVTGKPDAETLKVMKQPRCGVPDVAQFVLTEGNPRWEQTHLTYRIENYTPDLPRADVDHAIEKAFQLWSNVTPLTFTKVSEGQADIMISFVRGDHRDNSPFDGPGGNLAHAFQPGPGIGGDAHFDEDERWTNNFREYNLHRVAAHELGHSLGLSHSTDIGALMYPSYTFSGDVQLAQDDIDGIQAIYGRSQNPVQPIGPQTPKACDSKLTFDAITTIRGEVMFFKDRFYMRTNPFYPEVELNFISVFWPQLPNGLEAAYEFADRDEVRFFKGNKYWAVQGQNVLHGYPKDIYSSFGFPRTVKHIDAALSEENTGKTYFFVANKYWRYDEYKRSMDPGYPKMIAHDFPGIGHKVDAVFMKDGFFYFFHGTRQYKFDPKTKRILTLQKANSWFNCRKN

| Compound | Selectivity [1] | Cmax [2] | Cmax [3] | IC50 (Collagenase 3) | IC50 (Interstitial collagenase) |
| --- | --- | --- | --- | --- | --- |
| COc1ccc(S(=O)(=O)CC(NC(=O)CNC(=O)OCc2ccccc2)C(=O)NO)cc1 (centres undefined) | > 40 | – | – | – | – |
| CC(=O)N(C)[C@H](CS(=O)(=O)c1ccc(Oc2ccccc2)cc1)C(=O)NO | 450 | 60 ng/mL | 2450 ng/mL | 0.2 nM | 90 nM |
| CN(C(=O)Cc1ccncc1)[C@H](CS(=O)(=O)c1ccc(Oc2ccccc2)cc1)C(=O)NO | 130 | – | 710 ng/mL | 2 nM | – |
| Cc1ccc(S(=O)(=O)NC(CS(=O)(=O)c2ccc(Oc3ccccc3)cc2)C(=O)NO)cc1 (centres undefined) | 670 | – | – | – | – |
| CC(=O)NC(CS(=O)(=O)c1ccc(Sc2ccccc2)cc1)C(=O)NO (centres undefined) | > 1700 | – | – | – | – |
| CC(=O)N[C@H](CS(=O)(=O)c1ccc(Sc2ccccc2)cc1)C(=O)NO | 3400 | – | – | 2.9 nM | 10000 nM |
| CC(C)(C)OC(=O)N[C@H](CS(=O)(=O)c1ccc(Sc2ccccc2)cc1)C(=O)NO | > 2500 | – | – | 4 nM | > 10000 nM |
| CC(C)(C)OC(=O)N[C@H](CS(=O)(=O)c1ccc(Oc2ccccc2)cc1)C(=O)NO | 1600 | – | < 200 ng/mL | 0.3 nM | 500 nM |
| CN(Cc1ccccc1)[C@H](CS(=O)(=O)c1ccc(Oc2ccccc2)cc1)C(=O)NO | 2400 | – | – | – | – |
| CN[C@H](CS(=O)(=O)c1ccc(Oc2ccccc2)cc1)C(=O)NO | 1100 | 49 ng/mL | 6660 ng/mL | 0.4 nM | 440 nM |
| O=C(CNC(=O)OCc1ccccc1)NC(CS(=O)(=O)c1ccc(Sc2ccccc2)cc1)C(=O)NO (centres undefined) | > 12000 | – | – | – | – |
| COc1ccc(S(=O)(=O)CC(N)C(=O)NO)cc1 (centres undefined) | 17 | – | – | – | – |
| COc1cccc(OC)c1C(=O)N[C@H](CS(=O)(=O)c1ccc(Oc2ccccc2)cc1)C(=O)NO | 870 | – | < 200 ng/mL | 0.4 nM | 350 nM |
| O=C(NC(CS(=O)(=O)c1ccc(Oc2ccccc2)cc1)C(=O)NO)OCc1ccccc1 (centres undefined) | 1300 | – | – | 1.1 nM | 1400 nM |
| COc1ccc(S(=O)(=O)CC(NC(=O)OC(C)(C)C)C(=O)NO)cc1 (centres undefined) | 100 | – | – | 15 nM | 1500 nM |
| O=C(N[C@H](CS(=O)(=O)c1ccc(Oc2ccccc2)cc1)C(=O)NO)c1ccncc1 | 1100 | – | < 200 ng/mL | 0.8 nM | 900 nM |
| COc1ccc(S(=O)(=O)CC(NC(C)=O)C(=O)NO)cc1 (centres undefined) | 20 | – | – | – | – |
| O=C(N[C@H](CS(=O)(=O)c1ccc(Sc2ccccc2)cc1)C(=O)NO)OCc1ccccc1 | 20000 | – | – | 0.4 nM | 8000 nM |
| NC(CS(=O)(=O)c1ccc(Sc2ccccc2)cc1)C(=O)NO (centres undefined) | 420 | – | – | – | – |
| Cc1ccc(S(=O)(=O)NC(CS(=O)(=O)c2ccc(Sc3ccccc3)cc2)C(=O)NO)cc1 (centres undefined) | 1500 | – | – | – | – |
| CC(=O)NC(CS(=O)(=O)c1ccc(Oc2ccccc2)cc1)C(=O)NO (centres undefined) | 700 | – | – | 1.1 nM | 770 nM |
| O=C(NC(CS(=O)(=O)c1ccc(Sc2ccccc2)cc1)C(=O)NO)OCc1ccccc1 (centres undefined) | > 2700 | – | – | – | – |
| CN(C(=O)OC(C)(C)C)[C@H](CS(=O)(=O)c1ccc(Oc2ccccc2)cc1)C(=O)NO | 5300 | – | – | – | – |
